Our source for the detectable binding and binding values is article PMC3852661, “Structural basis of SUFU–GLI interaction in human Hedgehog signalling regulation” (Acta Crystallographica Section D: Biological Crystallography, 2013).

The test system of experiment [1] is MBP-SUFU-FL, mutation of Asp159. As to the kind of experiment: Microscale thermophoresis, MBP-SUFU-FL mutated at Asp159. The class given is binding, human. The settings on record: mutation of Asp159 in MBP-SUFU-FL, data not shown. The method, then:
A 5-FAM-labelled peptide (FAM-GLI1p) comprising residues 115–131 of GLI1 (Supplementary Table S1b) was synthesized by Pepceuticals Ltd. A titration series of each recombinant protein was prepared by serial 1:1 dilutions in MST buffer (50 mM Tris–HCl pH 7.6, 150 mM NaCl, 10 mM MgCl2, 0.05% Tween-20) and mixed in a 1:1 ratio with FAM-GLI1p to give final concentrations of 50 nM FAM-GLI1p with MBP-SUFU constructs in the ranges 14.2–29 070 and 54–110 500 nM. Reactions were aspirated into glass capillaries and the thermophoretic movement of FAM-GLI1p was monitored using a Monolith NT.115 instrument (NanoTemper Technologies; Wienken et al., 2010[▶]), with a laser on for 30 s and off for 5 s and a laser power/voltage of 20% for MBP-SUFU-FL and the MBP-SUFU-FL mutants, 40% for MBP-SUFU-Δ and 80% for MBP-SUFU-SH. Fluorescence was measured before laser heating (F Cold) and after 30 s of laser-on time (F Hot). The normalized fluorescence F Hot/F Cold reflects the concentration ratio of labelled molecules. F Hot/F Cold was plotted directly and multiplied by a factor of […], yielding a relative change in fluorescence per thousand. K d was calculated from three independent thermophoresis measurements using NanoTemper software (NanoTemper Technologies). […]

The subject of another experiment is MBP-SUFU-SH. As to the kind of experiment: Thermal stability assay with peptide, MBP-SUFU-SH. Type of experiment: binding, human. To be noted: 44 µM peptide, 2.2 µM protein, SYPRO Orange, pH 7.0; triplicate. The method, then:
Recombinant MBP-SUFU proteins were diluted to 2.6 µM in 50 mM Na HEPES pH 7.0, 50 mM NaCl, 5 mM β-mercaptoethanol; the peptides GLI1p and GLI1p-SH (Supplementary Table S1b), synthesized by Dr W. Mawby (University of Bristol), were dissolved in the same buffer. Proteins were spun at 14 000g for 20 min at 4°C before adding SYPRO Orange (Molecular Probes) to a final concentration of 6×. Reaction volumes of 25 µl were prepared in 96-well PCR plates with 2.2 µM protein/SYPRO Orange solution and, where applicable, 44 µM peptide. Plates were sealed with optical tape, heated from 20 to 90°C in 12 s 0.2°C steps in an iCycler and fluorescence was detected using an excitation wavelength of 470 nm and an emission wavelength of 570 nm.
Figure 4 The SUFU IDR has distinct structural properties. (a) Thermal stability assays of MBP-SUFU constructs performed in triplicate, either alone (blue) or with GLI1p (red) or GLI1p-SH (green). […] (b) Microscale thermophoresis experiments with FAM-GLI1p and titrated MBP-SUFU constructs, showing an average of three separate experiments. All proteins have similar affinity, but the thermophoretic properties of FAM-GLI1p are modified differently between the MBP-SUFU-FL construct and the MBP-SUFU-Δ and MBP-SUFU-SH constructs, reflecting a difference in shape.

MBP-SUFU-SH, sequence (Q9UMX1 32-278 limits assumed): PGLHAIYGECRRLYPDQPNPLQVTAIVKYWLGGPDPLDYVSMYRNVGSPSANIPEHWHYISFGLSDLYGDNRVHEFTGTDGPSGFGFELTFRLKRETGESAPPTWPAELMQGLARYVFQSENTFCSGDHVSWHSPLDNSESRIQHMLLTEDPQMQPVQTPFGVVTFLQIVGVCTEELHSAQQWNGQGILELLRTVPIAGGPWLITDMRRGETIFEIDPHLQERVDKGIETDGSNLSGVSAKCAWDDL
MBP-SUFU-SH, sequence (Q9UMX1 361-483 limits assumed): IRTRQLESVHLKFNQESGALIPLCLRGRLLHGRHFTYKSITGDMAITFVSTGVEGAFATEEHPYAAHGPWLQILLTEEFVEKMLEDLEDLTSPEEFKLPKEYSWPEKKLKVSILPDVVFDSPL

Regarding “GLI1p: human GLI1-derived peptide; residues 115–131, containing the highly conserved SYGH motif (TSPGGSYGHLSIGTMSP)”, the detectable binding entry in experiment [1] is recorded as “abolished detectable binding”. Besides, the binding entry with MBP-SUFU-SH is reported as “All constructs bind to GLI1p”.
